# Source: patent US11976083B2, “Inhibitors of peptidylarginine deiminases” (Gilead Sciences, Inc., priority 2020, dated 2024)
# Biological target: T1, human PAD4 (Homo sapiens, UniProt Q9UM07)
# T1 construct: human PAD4 (NM_012387), A2-P663, was PCR amplified; His-SUMO (N, cleaved yes); made in house; host or cells: E. coli BL21(DE3)
# Test: In vitro PAD4 BAEE biochemical assay
# Details: BAEE substrate 3 mM, 5 nM PAD4, 2 mM calcium chloride; geometric mean of multiple experiments
# Outline: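 Recombinant PAD4 (5 nM final) with 2 mM CaCl2 was preincubated with compound for 30 min at 25 °C in MOPS pH 7.6 buffer with DTT, then reacted with 3 mM BAEE for 2 h at 25 °C. Released ammonia was detected fluorimetrically with o-phthalaldehyde/DTT; IC50 from four-parameter fit, geometric mean of experiments.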
# T1 sequence (Q9UM07 2-663): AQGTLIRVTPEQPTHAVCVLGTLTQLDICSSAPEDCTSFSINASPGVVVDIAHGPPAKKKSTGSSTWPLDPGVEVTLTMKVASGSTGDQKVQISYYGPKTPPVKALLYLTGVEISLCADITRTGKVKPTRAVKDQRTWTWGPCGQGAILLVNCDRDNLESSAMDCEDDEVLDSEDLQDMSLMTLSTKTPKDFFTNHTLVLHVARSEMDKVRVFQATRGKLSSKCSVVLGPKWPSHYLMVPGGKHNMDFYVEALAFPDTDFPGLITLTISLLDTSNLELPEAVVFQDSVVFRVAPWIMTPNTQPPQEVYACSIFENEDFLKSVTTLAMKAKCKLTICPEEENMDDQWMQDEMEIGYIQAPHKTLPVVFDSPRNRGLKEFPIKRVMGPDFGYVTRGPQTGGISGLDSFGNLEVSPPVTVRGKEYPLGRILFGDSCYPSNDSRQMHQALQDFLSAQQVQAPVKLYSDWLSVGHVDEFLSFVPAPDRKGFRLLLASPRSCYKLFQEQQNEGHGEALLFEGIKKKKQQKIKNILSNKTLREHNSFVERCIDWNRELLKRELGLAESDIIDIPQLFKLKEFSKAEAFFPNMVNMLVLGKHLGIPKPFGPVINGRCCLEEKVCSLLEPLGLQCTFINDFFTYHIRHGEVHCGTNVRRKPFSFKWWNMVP
row,IC50 [nM],SMILES
1,5,"COc1cc(C(=O)N2C[C@H](N)[C@@H]3CC[C@H]2C3)cc2nc(-c3cc4ccc5nc4n3CCCCC[C@H]3[C@H](C(=O)N[C@@H]5C)C3(F)F)n(C)c12 [Example 757, (2~{R},5~{R},7~{S})-14-[5-[(1~{S},4~{R},5~{R})-4-amino-2-azabicyclo[3.2.1]octane-2-carbonyl]-7-methoxy-1-methyl-benzimidazol-2-yl]-6,6-difluoro-2-methyl-3,13,19-triazatetracyclo[11.5.2.0^ {5,7}.0^{16,20}]icosa-1(19), 14,16(20),17-tetraen-4-one]"
2,156,"COc1cc(C(=O)N2CC[C@@H](OC)[C@@H](N)C2)cc2nc(-c3cc4ccc5nc4n3CCCC(F)(F)C[C@H]3C[C@@H]3C(=O)N[C@@H]5C)n(C)c12 [Example 856, (2~{R},5~{S},7~{R})-14-[5-[(3~{S),4~{R})-3-amino-4-methoxy-piperidine-1-carbonyl]-7-methoxy-1-methyl-benzimidazol-2-yl]-9,9-difluoro-2-methyl-3,13,19-triazatetracyclo [11.5.2.0^{5,7}.0^{16,20}] icosa-1(19),14,16(20), 17-tetraen-4-one]"
3,118,"COc1cc(C(=O)N2CC[C@H]3OCCN[C@H]3C2)cc2nc(-c3cc4ccc5nc4n3CC(F)(F)CCC[C@@H]3C[C@H]3C(=O)N[C@@H]5C)n(C)c12 [Example 803, (2~{R},5~{R},7~{R})-14-[5-[(4~{a}~{S},8~{a}~{R})-2,3,4,4~{a},5,7,8,8~{a}-octahydropyrido[4,3-b][1,4]oxazine-6-carbonyl]-7-methoxy-1-methyl-benzimidazol-2-yl]-11,11-difluoro-2-methyl-3,13,19-triazatetracyclo[11.5.2.0^ {5,7}.0^{16,20}]icosa-1(18),14,16,19-tetraen-4-one]"
4,76,"C[C@H]1NC(=O)[C@@H]2C[C@@H]2C/C=C\CCn2c(-c3nc4cc(C(=O)N[C@H]5CNCC[C@@H]5F)c(F)cc4n3C)cc3ccc1nc32 [Example 521, 6-fluoro-~{N}-[(3~ {S},4~{S})-4-fluoro-3-piperidyl]-1-methyl-2-[(2~{R},5~{R},7~ {S},9~{Z})-2-methyl-4-oxo-3,13,19-triazatetracyclo[11.5.2.0^ {5,7}.0^{16,20}]icosa-1(19),9,14,16(20), 17-pentaen-14-yl] benzimidazole-5-carboxamide]"
5,74,"C[C@H]1NC(=O)C(C)(C)CCCCCn2c(-c3nc4cc(C(=O)N[C@H]5CNCC[C@@H]5F)c(F)cc4n3C3CC3)cc3ccc1nc32 [Example 515, 1-cyclopropyl-6-fluoro- ~{N}-[(3~{S},4~{S})-4-fluoro-3-piperidyl]-2-[(10~{R})-7,7,10-trimethyl-8-oxo-1,9,18-triazatricyclo [9.5.2.0^{14,17}]octadeca-11(18),12,14(17),15-tetraen-16-yl]benzimidazole-5-carboxamide]"
6,112,"COc1cc(C(=O)N[C@H]2CNCC[C@@H]2F)cc2nc(-c3cc4ccc5nc4n3CC(F)(F)CCCCC(C)(C)C(=O)N[C@@H]5C)n(C)c12 [Example 594, 2-[(11~{R})-3,3-difluoro-8,8,11-trimethyl-9-oxo-1,10,19-triazatricyclo [10.5.2.0^{15,18}]nonadeca-12,14,16,18-tetraen-17-yl]-~ {N}-[(3~{S},4~{S})-4-fluoro-3-piperidyl]-7-methoxy-1-methyl-benzimidazole-5-carboxamide]"
7,62,CO[C@@H]1CCN(C(=O)c2cc(F)c3c(c2)nc(-c2cc4ccc5nc4n2CC(F)(F)/C=C/C[C@@H]2C[C@H]2C(=O)N[C@@H]5C)n3C)C[C@@H]1N [Example 739]
8,38,"COc1cc(C(=O)N2CC[C@@H](OC)[C@@H](N)C2)cc2nc(-c3cc4ccc5nc4n3CCCCCc3ccnc(F)c3C(=O)N[C@@H]5C)n(C)c12 [Example 825, (2~{R})-17-[5-[(3~{S},4~ {R})-3-amino-4-methoxy-piperidine-1-carbonyl]-7-methoxy-1-methyl-benzimidazol-2-yl]-6-fluoro-2-methyl-3,7,16,22-tetrazatetracyclo[14.5.2.0^ {5,10}.0^{19,23}]tricosa-1(21),5,7,9,17,19,22-heptaen-4-one]"
